# Experiments:
# [1] = High‐throughput metabolic stability assay, pooled human liver microsomes; settings: predicted hepatic metabolic (blood) clearance
# rat hepatocytes = experiment: High‐throughput metabolic stability assay, freshly harvested rat hepatocytes; settings: predicted hepatic metabolic (blood) clearance
# A2780 cells = experiment: In vitro proliferation assay, cultivated A2780 cells; type: cell-based; settings: Homo sapiens, A2780, read-out: IC50 A2780
# [2] = logD by reversed‐phase HPLC; settings: pH 7.5
# Caco2 = experiment: Bidirectional Caco2 permeability assay, 24‐well format; settings: for P app A→B: Caco2, apical to basolateral; for permeability in either direction (P app A→B and P app B→A): Caco2, incubation period 90 min, possibly precipitation and sticking to plastics
# CDK2 = CDK2 (Homo sapiens, UniProt P24941); experiment: Biochemical in vitro kinase assay CDK2
# CDK9 = CDK9 (Homo sapiens, UniProt P50750); experiment: Biochemical in vitro kinase assay CDK9
# CDK9, sequence (P50750 whole entry): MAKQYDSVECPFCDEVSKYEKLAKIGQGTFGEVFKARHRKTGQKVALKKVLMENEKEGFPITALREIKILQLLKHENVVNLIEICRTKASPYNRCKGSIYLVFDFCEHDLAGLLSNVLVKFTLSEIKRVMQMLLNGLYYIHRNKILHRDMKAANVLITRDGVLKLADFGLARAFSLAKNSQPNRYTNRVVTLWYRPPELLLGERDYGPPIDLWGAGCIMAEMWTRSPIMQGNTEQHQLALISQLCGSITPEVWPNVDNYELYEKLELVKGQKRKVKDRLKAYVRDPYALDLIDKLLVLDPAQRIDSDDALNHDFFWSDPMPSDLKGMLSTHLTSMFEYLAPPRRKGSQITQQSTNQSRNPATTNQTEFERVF
# CDK9, sequence (O60563 whole entry partner): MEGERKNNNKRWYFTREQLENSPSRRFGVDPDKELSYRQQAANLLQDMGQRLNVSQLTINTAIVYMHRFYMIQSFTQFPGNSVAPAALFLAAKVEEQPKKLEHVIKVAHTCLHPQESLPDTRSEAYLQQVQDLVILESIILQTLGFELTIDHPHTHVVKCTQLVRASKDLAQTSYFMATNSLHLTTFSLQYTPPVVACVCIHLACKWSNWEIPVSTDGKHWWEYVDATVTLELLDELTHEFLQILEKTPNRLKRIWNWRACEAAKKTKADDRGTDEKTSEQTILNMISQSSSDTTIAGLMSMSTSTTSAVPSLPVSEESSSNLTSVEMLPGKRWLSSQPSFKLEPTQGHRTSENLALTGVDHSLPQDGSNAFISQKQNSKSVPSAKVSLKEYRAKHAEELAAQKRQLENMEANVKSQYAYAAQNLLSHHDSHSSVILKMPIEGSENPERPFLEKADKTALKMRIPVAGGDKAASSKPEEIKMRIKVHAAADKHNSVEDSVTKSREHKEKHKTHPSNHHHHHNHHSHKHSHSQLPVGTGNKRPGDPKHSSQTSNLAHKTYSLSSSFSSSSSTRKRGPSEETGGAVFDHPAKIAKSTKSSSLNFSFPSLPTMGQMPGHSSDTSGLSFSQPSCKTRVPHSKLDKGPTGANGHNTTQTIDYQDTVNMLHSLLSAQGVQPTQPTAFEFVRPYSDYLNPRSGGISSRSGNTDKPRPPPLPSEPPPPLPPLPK
# [3] = Bidirectional Caco2 permeability assay, 24‐well format; settings: human
# CDK6/CycD3 = CDK6/CycD3 (Homo sapiens, UniProt Q00534); experiment: Biochemical assay at ProQinase, CDK6/CycD3
# CDK6/CycD3, sequence (Q00534 whole entry): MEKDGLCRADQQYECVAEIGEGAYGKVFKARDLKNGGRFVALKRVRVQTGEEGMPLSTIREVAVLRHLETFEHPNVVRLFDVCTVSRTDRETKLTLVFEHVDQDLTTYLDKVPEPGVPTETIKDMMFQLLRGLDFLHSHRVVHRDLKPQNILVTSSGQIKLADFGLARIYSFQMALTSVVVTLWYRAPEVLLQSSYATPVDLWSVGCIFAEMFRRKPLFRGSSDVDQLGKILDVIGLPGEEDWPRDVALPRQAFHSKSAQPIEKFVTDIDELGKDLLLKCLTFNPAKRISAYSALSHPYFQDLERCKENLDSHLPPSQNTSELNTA
# CDK6/CycD3, sequence (P30281 whole entry partner): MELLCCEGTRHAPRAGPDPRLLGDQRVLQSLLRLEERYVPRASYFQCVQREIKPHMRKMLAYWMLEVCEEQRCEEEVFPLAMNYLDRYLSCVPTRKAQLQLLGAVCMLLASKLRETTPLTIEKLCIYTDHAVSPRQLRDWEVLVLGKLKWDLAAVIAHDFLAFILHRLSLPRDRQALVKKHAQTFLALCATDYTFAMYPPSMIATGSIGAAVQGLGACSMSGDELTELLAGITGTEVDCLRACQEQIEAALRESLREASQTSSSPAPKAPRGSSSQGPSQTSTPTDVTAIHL
# CDK4/CycD3 = CDK4/CycD3 (Homo sapiens, UniProt P11802); experiment: Biochemical assay at ProQinase, CDK4/CycD3
# CDK4/CycD3, sequence (P11802 whole entry): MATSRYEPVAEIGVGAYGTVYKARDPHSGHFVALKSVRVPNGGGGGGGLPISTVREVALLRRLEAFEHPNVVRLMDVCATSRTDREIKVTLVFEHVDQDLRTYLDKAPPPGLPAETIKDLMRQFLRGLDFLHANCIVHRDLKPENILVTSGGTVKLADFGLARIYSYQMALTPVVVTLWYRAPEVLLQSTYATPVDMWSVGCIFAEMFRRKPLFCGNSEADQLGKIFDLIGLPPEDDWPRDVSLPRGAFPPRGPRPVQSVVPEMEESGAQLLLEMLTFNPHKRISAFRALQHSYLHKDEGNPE
# CDK4/CycD3, sequence (P30281 whole entry partner): as the sequence (P30281 whole entry partner) above
# MOLM‐13 cells = experiment: In vitro proliferation assay, MOLM‐13 cells; type: cell-based; settings: Homo sapiens, MOLM-13, read-out: IC50 MOLM‐13
# MCF7 cells = experiment: In vitro proliferation assay, human MCF7 cells stimulated with 17β‐estradiol; type: cell-based; settings: MCF7, read-out: IC50 MCF7 E2 stim.
# [4] = biological target: T1, wild‐type estrogen receptor 1 (ESR1) (Homo sapiens, UniProt P03372); experiment: Wild‐type estrogen receptor 1; type: cell-based
# T1 sequence (P03372 1-595): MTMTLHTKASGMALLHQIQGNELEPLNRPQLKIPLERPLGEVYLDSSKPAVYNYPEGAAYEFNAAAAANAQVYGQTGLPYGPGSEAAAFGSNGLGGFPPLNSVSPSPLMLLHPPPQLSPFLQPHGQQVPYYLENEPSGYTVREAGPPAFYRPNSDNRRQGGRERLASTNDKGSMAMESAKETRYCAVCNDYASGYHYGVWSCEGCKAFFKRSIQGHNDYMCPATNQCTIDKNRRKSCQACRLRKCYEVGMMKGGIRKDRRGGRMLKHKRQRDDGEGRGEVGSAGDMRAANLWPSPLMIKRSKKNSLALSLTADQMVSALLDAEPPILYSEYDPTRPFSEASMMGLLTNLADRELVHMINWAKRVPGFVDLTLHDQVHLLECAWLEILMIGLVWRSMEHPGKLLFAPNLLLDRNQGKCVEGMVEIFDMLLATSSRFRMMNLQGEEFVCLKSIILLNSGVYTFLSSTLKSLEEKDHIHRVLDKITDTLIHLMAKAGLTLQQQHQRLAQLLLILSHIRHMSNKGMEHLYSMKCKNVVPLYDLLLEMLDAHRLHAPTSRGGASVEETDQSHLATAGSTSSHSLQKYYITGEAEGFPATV
# [5] = estimated; cited from earlier work
SMILES,CLb hLMs [1],CLb rHep (rat hepatocytes),IC50 (A2780 cells),chromatographic logD [2],P app A→B (Caco2),IC50 (CDK2),IC50 (CDK9),efflux ratio at 90 min ([3]; Caco-2),IC50 (CDK6/CycD3),IC50 (CDK4/CycD3),IC50 (MOLM‐13 cells),"efflux ratio at 90 min ([3]; Caco-2, ER, Caco2 efflux ratio, P app B→A/P app A→B)","ER (Caco2; Caco2 efflux ratio, P app B→A/P app A→B)",IC50 (MCF7 cells),IC50 [4],permeability in either direction (P app A→B and P app B→A) (Caco2),aqueous solubility [5]
"O=C(NC1CCNCC1)c1n[nH]cc1NC(=O)c1c(Cl)cccc1Cl [AT7519, reference compound]",4 mL/min/kg,28.3 mL/min/kg,0.131 µM,1.3,0.1 ×10⁻⁶ cm/s,,,,,,,,,,,,
"N=S1(=O)CCC(NC(=O)c2n[nH]cc2NC(=O)c2c(Cl)cccc2Cl)CC1 (stereo not drawn) [compound 15, 4‐(2,6‐Dichlorobenzamido)‐N‐(1‐imino‐1‐oxo‐1λ^6‐thian‐4‐yl)‐1H‐pyrazole‐3‐carboxamide]",1 mL/min/kg,1 mL/min/kg,0.351 µM,1.6,0.14 ×10⁻⁶ cm/s,0.522 µM,0.124 µM,37,,,,,,,,,
"CCCc1nc(C)c2c(=O)[nH]c(-c3cc(S(=O)(=O)N4CCS(=N)(=O)CC4)ccc3OCC)nn12 [compound 29, 4‐(4‐Ethoxy‐3‐{5‐methyl‐4‐oxo‐7‐propyl‐3 H,4H‐imidazo[4,3‐f][1,2,4]triazin‐2‐yl}benzenesulfonyl)‐1‐imino‐1λ^6‐thiomorpholin‐1‐one]",7.17 mL/min/kg,35 mL/min/kg,,2,,,,,,,,> 200,288,,,,
"C[C@]12CC[C@@H]3c4ccc(O)cc4C[C@@H](CCCCCCCCC[S@](=N)(=O)CCCC(F)(F)C(F)(F)F)[C@H]3[C@@H]1CC[C@@H]2O [compound 33, 7α‐{9‐[(S)‐(4,4,5,5,5‐Pentafluoropentyl)sulfonimidoyl]nonyl}estra‐1,3,5(10)‐triene‐3,17β‐diol]",18.3 mL/min/kg,58.3 mL/min/kg,,3.8,,,,,,,,,,0.0071 µM,0.0018 µM,no permeability in either direction,
"C[C@]12CC[C@@H]3c4ccc(O)cc4C[C@@H](CCCCCCCCC[S+]([O-])CCCC(F)(F)C(F)(F)F)[C@H]3[C@@H]1CC[C@@H]2O (stereo partly drawn) [fulvestrant, reference compound]",20 mL/min/kg,58.3 mL/min/kg,,4.2,,,,,,,,,,0.0092 µM,,no permeability in either direction,~0.01 µg/mL
"CCCc1nc(C)c2c(=O)[nH]c(-c3cc(S(=O)(=O)N4CCN(CC)CC4)ccc3OCC)nn12 [vardenafil, reference compound]",18.3 mL/min/kg,50 mL/min/kg,,2.6,20.6 ×10⁻⁶ cm/s,,,,,,,,,,,,

# Now from value to compound, other results behind:
CLb hLMs [1],CLb rHep (rat hepatocytes),IC50 (A2780 cells),chromatographic logD [2],P app A→B (Caco2),IC50 (CDK2),IC50 (CDK9),efflux ratio at 90 min ([3]; Caco-2),IC50 (CDK6/CycD3),IC50 (CDK4/CycD3),IC50 (MOLM‐13 cells),"efflux ratio at 90 min ([3]; Caco-2, ER, Caco2 efflux ratio, P app B→A/P app A→B)","ER (Caco2; Caco2 efflux ratio, P app B→A/P app A→B)",IC50 (MCF7 cells),IC50 [4],permeability in either direction (P app A→B and P app B→A) (Caco2),SMILES,aqueous solubility [5]
4 mL/min/kg,18.3 mL/min/kg,,2,2.5 ×10⁻⁶ cm/s,,,9.1,0.24 µM,0.101 µM,0.128 µM,,,,,,"CC(=O)c1c(C)c2cnc(Nc3ccc(N4CCS(=N)(=O)CC4)cn3)nc2n(C2CCCC2)c1=O [compound 23, 4‐[6‐({6‐Acetyl‐8‐cyclopentyl‐5‐methyl‐7‐oxo‐7 H,8H‐pyrido[2,3‐d]pyrimidin‐2‐yl}amino)pyridin‐3‐yl]‐1‐imino‐1λ^6‐thiomorpholin‐1‐one]",
3.5 mL/min/kg,18.3 mL/min/kg,,1.8,2.2 ×10⁻⁶ cm/s,,,11,> 1 µM,0.216 µM,1.15 µM,,,,,,"CN(C)C(=O)c1cc2cnc(Nc3ccc(N4CCS(=N)(=O)CC4)cn3)nc2n1C1CCCC1 [compound 26, 7‐Cyclopentyl‐2‐{[5‐(1‐imino‐1‐oxo‐1λ^6‐thiomorpholin‐4‐yl)pyridin‐2‐yl]amino}‐N,N ‐dimethyl‐7H‐pyrrolo[2,3‐d]pyrimidine‐6‐carboxamide]",
7.5 mL/min/kg,21.7 mL/min/kg,,1.9,7 ×10⁻⁶ cm/s,,,,,,0.041 µM,,,,,,"CC(=O)c1c(C)c2cnc(Nc3ccc(N4CCNCC4)cn3)nc2n(C2CCCC2)c1=O [palbociclib, reference compound]",
8.67 mL/min/kg,38.3 mL/min/kg,,1.7,13.5 ×10⁻⁶ cm/s,,,,,,0.089 µM,,,,,,"CN(C)C(=O)c1cc2cnc(Nc3ccc(N4CCNCC4)cn3)nc2n1C1CCCC1 [ribociclib, reference compound]",
